Measured values from the supplement of paper PMC11208160.

Assay: recombinant UMI read abundance after kanamycin selection (control-corrected) (log10(CPM+1)); higher = more efficient recombination; extreme values may be limits of the assay; sequences stand for … in AGTGCAGAGAAAATCGGCCAGTTTTCTCTGCCTGCAGTCCGCATGCCGTGGGACCCCTTGGGTTCTAACCTGTTGCCTAGATTTATGCAGCGGACTGCCTTTCTCCCAAAGTGATAAACCGG…AGGTTGGTTTCACT; site = the 11-nt donor
How it was run: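 Reported values are log10(CPM+1) from a pooled Escherichia coli screen of donor and donor-binding-loop pairs for the IS621 bridge recombinase. Selection used IPTG (0.07 mM) plus kanamycin, against unselected plating, each in two replicates. Recombinant UMIs were amplified across the donor–target junction, sequenced, converted to CPM, averaged over replicates and scaled by control-derived factors.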
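Also: IS621 bridge recombinase in Escherichia coli cells against a fixed T5 target plasmid.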

Sequence | recombinant UMI read abundance (log10)
GAGTAATCATGGACCGGTTTTCCCGGTAATCCGTATTTGGG (site GAGTAATCTCC) | 1.57
GAGTAGGCATGGACCGGTTTTCCCGGTAATCCGTATTTGAT (site GAGTAGGCTAT) | 1.96
GAGTAGGCATGGACCGGTTTTCCCGGTAATCCGTATTTGGG (site GAGTAGGCTCC) | 0.566
GAGTCATCATGGACCGGTTTTCCCGGTAATCCGTATTTGGT (site GAGTCATCTAC) | 1.02
GAGTCCCCATGGACCGGTTTTCCCGGTAATCCGTATTTGTC (site GAGTCCCCTGA) | 0.99
GAGTGATCATGGACCGGTTTTCCCGGTAATCCGTATTTGCT (site GAGTGATCTAG) | 2.62
GAGTTCGCATGGACCGGTTTTCCCGGTAATCCGTATTTGGA (site GAGTTCGCTTC) | 1.08
GATAAATCATGGACCGGTTTTCCCGGTAATCCGTATTTGAC (site GATAAATCTGT) | 1.03
GATAAGTCATGGACCGGTTTTCCCGGTAATCCGTATTTGCC (site GATAAGTCTGG) | 2.1
GATACGACATGGACCGGTTTTCCCGGTAATCCGTATTTGTT (site GATACGACTAA) | 0.259
GATACTGCATGGACCGGTTTTCCCGGTAATCCGTATTTGCA (site GATACTGCTTG) | 1.61
GATACTGCATGGACCGGTTTTCCCGGTAATCCGTATTTGTC (site GATACTGCTGA) | 1.28
GATAGGTCATGGACCGGTTTTCCCGGTAATCCGTATTTGGA (site GATAGGTCTTC) | 1.15
GATATAGCATGGACCGGTTTTCCCGGTAATCCGTATTTGGT (site GATATAGCTAC) | 1.08
GATATATCATGGACCGGTTTTCCCGGTAATCCGTATTTGCG (site GATATATCTCG) | 1.42
GATCAAACATGGACCGGTTTTCCCGGTAATCCGTATTTGAA (site GATCAAACTTT) | 0
GATCCCTCATGGACCGGTTTTCCCGGTAATCCGTATTTGGC (site GATCCCTCTGC) | 0.839
GATCCGTCATGGACCGGTTTTCCCGGTAATCCGTATTTGCG (site GATCCGTCTCG) | 0.274
GATCCTACATGGACCGGTTTTCCCGGTAATCCGTATTTGCT (site GATCCTACTAG) | 0.00962

Sequence | recombinant UMI read abundance (log10)
GATCCTTCATGGACCGGTTTTCCCGGTAATCCGTATTTGTC (site GATCCTTCTGA) | 0.252
GATCTCTCATGGACCGGTTTTCCCGGTAATCCGTATTTGAT (site GATCTCTCTAT) | 0.578
GATGACACATGGACCGGTTTTCCCGGTAATCCGTATTTGTC (site GATGACACTGA) | 1.18
GATGACTCATGGACCGGTTTTCCCGGTAATCCGTATTTGGT (site GATGACTCTAC) | 2.49
GATGCAGCATGGACCGGTTTTCCCGGTAATCCGTATTTGTA (site GATGCAGCTTA) | 1.62
GATGCAGCATGGACCGGTTTTCCCGGTAATCCGTATTTGTT (site GATGCAGCTAA) | 0.749
GATGTACCATGGACCGGTTTTCCCGGTAATCCGTATTTGGC (site GATGTACCTGC) | 0.247
GATTACTCATGGACCGGTTTTCCCGGTAATCCGTATTTGTC (site GATTACTCTGA) | 1.09
GATTATCCATGGACCGGTTTTCCCGGTAATCCGTATTTGCC (site GATTATCCTAG) | 0
GATTATCCATGGACCGGTTTTCCCGGTAATCCGTATTTGCC (site GATTATCCTCG) | 0
GATTATCCATGGACCGGTTTTCCCGGTAATCCGTATTTGCC (site GATTATCCTGG) | 0
GATTATCCATGGACCGGTTTTCCCGGTAATCCGTATTTGCC (site GATTATCCTTG) | 0
GATTCATCATGGACCGGTTTTCCCGGTAATCCGTATTTGCG (site GATTCATCTCG) | 1.2
GATTCGGCATGGACCGGTTTTCCCGGTAATCCGTATTTGAC (site GATTCGGCTGT) | 0.484
GATTGCGCATGGACCGGTTTTCCCGGTAATCCGTATTTGCG (site GATTGCGCTCG) | 0.805
GATTGGACATGGACCGGTTTTCCCGGTAATCCGTATTTGAT (site GATTGGACTAT) | 0.838
GATTGGACATGGACCGGTTTTCCCGGTAATCCGTATTTGAT (site GATTGGACTCT) | 0.0264
GATTGGACATGGACCGGTTTTCCCGGTAATCCGTATTTGAT (site GATTGGACTGT) | 0
GATTGGACATGGACCGGTTTTCCCGGTAATCCGTATTTGAT (site GATTGGACTTT) | 0.0212

Sequence | recombinant UMI read abundance (log10)
GATTGGACATGGACCGGTTTTCCCGGTAATCCGTATTTGCC (site GATTGGACTGA) | 0
GATTGGACATGGACCGGTTTTCCCGGTAATCCGTATTTGCC (site GATTGGACTGC) | 0
GATTGGACATGGACCGGTTTTCCCGGTAATCCGTATTTGCC (site GATTGGACTGG) | 2.68
GATTGGACATGGACCGGTTTTCCCGGTAATCCGTATTTGCC (site GATTGGACTGT) | 0
GATTGGACATGGACCGGTTTTCCCGGTAATCCGTATTTGTC (site GATTGGACTGA) | 0.657
GATTGGACATGGACCGGTTTTCCCGGTAATCCGTATTTGTC (site GATTGGACTGC) | 0
GATTGGACATGGACCGGTTTTCCCGGTAATCCGTATTTGTC (site GATTGGACTGG) | 0.913
GATTGGACATGGACCGGTTTTCCCGGTAATCCGTATTTGTC (site GATTGGACTGT) | 0.172
GATTTATCATGGACCGGTTTTCCCGGTAATCCGTATTTGTC (site GATTTATCTGA) | 0.525
GATTTCGCATGGACCGGTTTTCCCGGTAATCCGTATTTGGG (site GATTTCGCTCC) | 0.00434
GCAAACGCATGGACCGGTTTTCCCGGTAATCCGTATTTGTG (site GCAAACGCTCA) | 1.98
GCAACTACATGGACCGGTTTTCCCGGTAATCCGTATTTGTG (site GCAACTACTCA) | 1.17
GCAAGTGCATGGACCGGTTTTCCCGGTAATCCGTATTTGTC (site GCAAGTGCTGA) | 0
GCAATATCATGGACCGGTTTTCCCGGTAATCCGTATTTGCA (site ACAGTATCTTG) | 1.37
GCAATATCATGGACCGGTTTTCCCGGTAATCCGTATTTGCA (site GCAATATCTTG) | 1.75
GCAATTCCATGGACCGGTTTTCCCGGTAATCCGTATTTGAG (site GCAATTCCTCT) | 0.651
GCAATTGCATGGACCGGTTTTCCCGGTAATCCGTATTTGCC (site GCAATTGCTGG) | 0
GCAATTTCATGGACCGGTTTTCCCGGTAATCCGTATTTGTA (site GCAATTTCTTA) | 2.26
GCACATGCATGGACCGGTTTTCCCGGTAATCCGTATTTGGA (site GCACATGCTTC) | 1.05
